Experiments:
Experiment in all cases: Survival of bacteria inoculated into silver-treated water aliquots
Assay type in all cases: cell-based
[1] = tested on: Bacillus cereus NCTC 10320; conditions: initial concentration 5.82
Procedure: (§1) Several bacterial organisms, E. coli ATCC 11775, Pseudomonas aeruginosa ATCC 27853, and Bacillus cereus NCTC 10320 were inoculated into equal volumes of the abovementioned aliquots to achieve an initial bacterial concentration of approximately 10^6 cells per millilitre. After three predetermined time periods of 5 minutes, 1 hour, and 8 days, aliquots of each solution were withdrawn, and enumeration of surviving organisms was performed. All tests were conducted in duplicate.
(§2) All results are expressed in log10 units.

E. coli ATCC 11775 = conditions: initial concentration 5.81
Procedure: as §1, §2

[2] = tested on: Pseudomonas aeruginosa ATCC 27853; conditions: initial concentration 5.62
Procedure: as §1, §2

[3] = sodium hypochlorite 0.5 ppm, period 5 min
[4] = sodium hypochlorite 0.5 ppm, period 1 hour
[5] = sodium hypochlorite 0.5 ppm, period 8 days

SMILES: [Na+].[O-]Cl [NaOCl, sodium hypochlorite, reference compound]
- surviving organisms, Bacillus cerus [1, 3]: 4.61 log10 units
- surviving organisms, Bacillus cerus [1, 4]: 4.61 log10 units
- surviving organisms, Bacillus cerus [1, 5]: 4.90 log10 units
- surviving organisms, E. coli (E. coli ATCC 11775; [3]): 5.82 log10 units
- surviving organisms, E. coli (E. coli ATCC 11775; [4]): 5.81 log10 units
- surviving organisms, E. coli (E. coli ATCC 11775; [5]): 4.48 log10 units
- surviving organisms, Pseudomonas aeruginosa [2, 3]: 5.62 log10 units
- surviving organisms, Pseudomonas aeruginosa [2, 4]: 5.63 log10 units
- surviving organisms, Pseudomonas aeruginosa [2, 5]: 4.98 log10 units

SMILES: [Ag] [Silver, silver]
- surviving organisms, Bacillus cerus ([1]; silver 50 ppb, period 5 min): 4.60 log10 units
- surviving organisms, Bacillus cerus ([1]; silver 50 ppb, period 1 hour): 2.30 log10 units
- surviving organisms, Bacillus cerus ([1]; silver 50 ppb, period 8 days): 0 log10 units
- surviving organisms, Bacillus cerus ([1]; silver 111 ppb, period 5 min): 4.20 log10 units
- surviving organisms, Bacillus cerus ([1]; silver 111 ppb, period 1 hour): 2.00 log10 units
- surviving organisms, Bacillus cerus ([1]; silver 111 ppb, period 8 days): 0 log10 units
- surviving organisms, Bacillus cerus ([1]; silver 190 ppb, period 5 min): 4.28 log10 units
- surviving organisms, Bacillus cerus ([1]; silver 190 ppb, period 1 hour): 1.93 log10 units
- surviving organisms, Bacillus cerus ([1]; silver 190 ppb, period 8 days): 0 log10 units
- surviving organisms, Bacillus cerus ([1]; silver 373 ppb, period 5 min): 4.19 log10 units
- surviving organisms, Bacillus cerus ([1]; silver 373 ppb, period 1 hour): 0 log10 units
- surviving organisms, Bacillus cerus ([1]; silver 373 ppb, period 8 days): 0 log10 units
- surviving organisms, E. coli (E. coli ATCC 11775; silver 50 ppb, period 5 min): 5.81 log10 units
- surviving organisms, E. coli (E. coli ATCC 11775; silver 50 ppb, period 1 hour): 4.79 log10 units
- surviving organisms, E. coli (E. coli ATCC 11775; silver 50 ppb, period 8 days): 0 log10 units
- surviving organisms, E. coli (E. coli ATCC 11775; silver 111 ppb, period 5 min): 5.77 log10 units
- surviving organisms, E. coli (E. coli ATCC 11775; silver 111 ppb, period 1 hour): 4.48 log10 units
- surviving organisms, E. coli (E. coli ATCC 11775; silver 111 ppb, period 8 days): 0 log10 units
- surviving organisms, E. coli (E. coli ATCC 11775; silver 190 ppb, period 5 min): 5.76 log10 units
- surviving organisms, E. coli (E. coli ATCC 11775; silver 190 ppb, period 1 hour): 3.74 log10 units
- surviving organisms, E. coli (E. coli ATCC 11775; silver 190 ppb, period 8 days): 0 log10 units
- surviving organisms, E. coli (E. coli ATCC 11775; silver 373 ppb, period 5 min): 5.79 log10 units
- surviving organisms, E. coli (E. coli ATCC 11775; silver 373 ppb, period 1 hour): 3.88 log10 units
- surviving organisms, E. coli (E. coli ATCC 11775; silver 373 ppb, period 8 days): 0 log10 units
- surviving organisms, Pseudomonas aeruginosa ([2]; silver 50 ppb, period 5 min): 5.61 log10 units
- surviving organisms, Pseudomonas aeruginosa ([2]; silver 50 ppb, period 1 hour): 5.27 log10 units
- surviving organisms, Pseudomonas aeruginosa ([2]; silver 50 ppb, period 8 days): 3.23 log10 units
- surviving organisms, Pseudomonas aeruginosa ([2]; silver 111 ppb, period 5 min): 5.61 log10 units
- surviving organisms, Pseudomonas aeruginosa ([2]; silver 111 ppb, period 1 hour): 4.98 log10 units
- surviving organisms, Pseudomonas aeruginosa ([2]; silver 111 ppb, period 8 days): 2.59 log10 units
- surviving organisms, Pseudomonas aeruginosa ([2]; silver 190 ppb, period 5 min): 5.61 log10 units
- surviving organisms, Pseudomonas aeruginosa ([2]; silver 190 ppb, period 1 hour): 5.00 log10 units
- surviving organisms, Pseudomonas aeruginosa ([2]; silver 190 ppb, period 8 days): 1.10 log10 units
- surviving organisms, Pseudomonas aeruginosa ([2]; silver 373 ppb, period 5 min): 5.62 log10 units
- surviving organisms, Pseudomonas aeruginosa ([2]; silver 373 ppb, period 1 hour): 5.10 log10 units
- surviving organisms, Pseudomonas aeruginosa ([2]; silver 373 ppb, period 8 days): 2.00 log10 units

From patent US8512725B2, “Method, material and system for controlled release of anti-microbial agents” (Bacstop Corporation Pty Ltd, priority 2004, dated 2013)
